Reference: patent EP1370263B1, “ANTIBIOTIC PHARMACEUTICAL COMPOSITION WITH LYSERGOL AS BIO-ENHANCER AND METHOD OF TREATMENT” (Council of Scientific and Industrial Research, priority 2002, dated 2003)

What was measured:
Escherichia coli = assay: microbe, parasite or virus in culture
Procedure: The invention is further explained in the form of following embodiments. • 1. […] For this, the cells are treated with compound for 4 to 8 hours and then washed free of it by centrifugation and washing in sterile water. […] These experiments are being described in the following examples. […] In all the experiments the Lysergol concentration is kept at 10 µg/ml, unless it is specifically mentioned.

Bacillus subtilis = assay: Broth assay, viable cell count: killing action of antibiotic alone and in combination with lysergol; assay type: cell-based, Bacillus subtilis (ATCC 6051)
Procedure: (§1) The invention is further explained in the form of following embodiments. • 1. Assay for bio-enhancement of anti-infective agents • (a) The minimum inhibitory concentration (MIC) of antibiotic is determined against Escherichia coli (ATCC 10536), Bacillus subtilis (ATCC 6051) and Mycobacterium smegmatis (ATCC 14468) in broth and disc diffusion assay. • (b) The antibiotics at concentrations 1/4, 1/3, 1/2 and equal to MIC are added alone and in combination with the test compound at varying concentrations on disc and in broth to evaluate the comparative inhibition. • (c) These combinations showing significant advantage or higher activity than antibiotic alone in terms of enhanced inhibition of bacterial growth (large inhibition zone in disc diffusion and effectivity of lower concentration in broth assay) are picked up for future testing. • (d) In broth assay the activity is quantified by counting number of viable cells in a given treatment and converted in fold enhancement by combination compared to antibiotic / drug alone in the killing percentage of cells. • (e) The pretreatment assay followed to determine whether the compound is required along with antibiotic to enhance its activity or even its withdrawal after treatment or prior to antibiotic treatment would benefit. For this, the cells are treated with compound for 4 to 8 hours and then washed free of it by centrifugation and washing in sterile water. This is followed by treatment with antibiotic as in steps b to d.
(§2) Bioactivity is experimented with the killing activities of different antibiotics against the bacteria singly and in combination with the test compound Lysergol following the method described above. These experiments are being described in the following examples. […] In all the experiments the Lysergol concentration is kept at 10 µg/ml, unless it is specifically mentioned.
Lysergol mediated enhancement in the killing action of antibiotics against Gram positive bacterium Bacillus subtilis.

Mycobacterium smegmatis = assay: as above; assay type: cell-based, Mycobacterium smegmatis (ATCC 14468)
Procedure: as §1, §2
Lysergol mediated enhancement in the killing action of antibiotics against bacterium Mycobacterium smegmatis Table 3: […]

[1] = Transport of antibiotics across freshly isolated gut membrane in U-shaped tubes (absorbency in right arm); assay type: in vitro ADME
Procedure: We performed the experiments in U-shaped tubes with joint in between, where the freshly isolated gut membrane is fixed. In control tube only antibiotic solution (4ml @ 1mg/ml solution) is poured in the left arm where as in the right arm only water is poured. In the other tube in addition to the antibiotic solution lysergol (4µg @ 1µg/ml) is added.

bacteria = assay: Growth of bacteria in presence of lysergol alone (killing activity); assay type: cell-based; conditions: 10 µg/ml, no antibiotic
Procedure: as §1, with “For this, the cells are treated with compound for 4 to 8 hours and then washed free of it by centrifugation and washing in sterile water. This is followed by treatment with antibiotic as in steps b to d.” left out

[2] = Escherichia coli, read-out: Survival fraction of viable cells upon treatment with antibiotic alone

| Structure (SMILES) | viability at 10 µg/mL (Escherichia coli; [2]) | viability at 20 µg/mL (Escherichia coli; [2]) | Fold enhancement in antibiotic activity (Escherichia coli; antibiotic 10 µg/ml + lysergol 10 µg/ml versus antibiotic alone) | Fold enhancement in antibiotic activity (Escherichia coli; antibiotic 20 µg/ml + lysergol 10 µg/ml versus antibiotic alone) | viability at 0.4 µg/mL (Bacillus subtilis; Bacillus subtilis, read-out: Survival fraction of viable cells upon treatment with antibiotic alone) | Survival fraction of viable cells upon treatment with antibiotic + lysergol combination (Bacillus subtilis; antibiotic 0.4 µg/ml + lysergol 10 µg/ml) | Fold enhancement in antibiotic activity (Bacillus subtilis; antibiotic 0.4 µg/ml + lysergol 10 µg/ml versus antibiotic alone) | viability at 0.2 µg/mL (Mycobacterium smegmatis; Mycolicibacterium smegmatis, read-out: Survival fraction of viable cells upon treatment with antibiotic alone) | Survival fraction of viable cells upon treatment with antibiotic + lysergol combination (Mycobacterium smegmatis; antibiotic 0.2 µg/ml + lysergol 10 µg/ml) | Fold enhancement in antibiotic activity (Mycobacterium smegmatis; antibiotic 0.2 µg/ml + lysergol 10 µg/ml versus antibiotic alone) | Increase in absorbency [1] | killing of bacteria grown in presence of the compound as such (bacteria) |
| --- | --- | --- | --- | --- | --- | --- | --- | --- | --- | --- | --- | --- |
| CO[C@H]1/C=C/O[C@@]2(C)Oc3c(C)c(O)c4c(O)c(c(/C=N/N5CCN(C)CC5)c(O)c4c3C2=O)NC(=O)/C(C)=C\C=C\[C@H](C)[C@H](O)[C@@H](C)[C@@H](O)[C@@H](C)[C@H](OC(C)=O)[C@@H]1C [Rifampicin] | 35 to 45% | 25 to 30% | 6-12 fold | 3-5 fold | 8.5 to 9.6% | 0.021-0.028 | 3.0-4.6 fold | 45 to 54% | 0.09-0.10 | 4.5-6.0 fold | 0.131 |  |
| CN1C[C@H](CO)C=C2c3cccc4[nH]cc(c34)C[C@H]21 [Lysergol, 9,10-Didehydro-6-methylergoline-8-[…]-methanol] |  |  |  |  |  |  |  |  |  |  |  | no significant killing |
